The source of these data is US11242333B2, “Inhibitors of plasma kallikrein” (Kalvista Pharmaceuticals Limited, priority 2013, dated 2022).

One test addresses Human plasma kallikrein (Homo sapiens (Human), UniProt P03952). The test can be described thus: Determination of the IC50 for plasma kallikrein. In kind it is biochemical. To be noted: 37° C., fluorogenic substrate H-DPro-Phe-Arg-AFC; read-out: IC50 (human PKal). The method, then: Determination of the IC50 for plasma kallikrein
Plasma kallikrein inhibitory activity in vitro was determined using standard published methods (see e.g. Johansen et al., Int. J. Tiss. Reac. 1986, 8, 185; Shori et al., Biochem. Pharmacol., 1992, 43, 1209; Stürzebecher et al., Biol. Chem. Hoppe-Seyler, 1992, 373, 1025). Human plasma kallikrein (Protogen) was incubated at 37° C. with the fluorogenic substrate H-DPro-Phe-Arg-AFC and various concentrations of the test compound. Residual enzyme activity (initial rate of reaction) was determined by measuring the change in […] at 410 nm and the IC50 value for the test compound was determined.

A further test concerns the target Human KLK1 (Homo sapiens (Human), UniProt P06870). The test can be described thus: Determination of the IC50 for KLK1. It counts as biochemical. Conditions: 37° C., fluorogenic substrate H-DVal-Leu-Arg-AFC. As to the method: Determination of the IC50 for KLK1
KLK1 inhibitory activity in vitro was determined using standard published methods (see e.g. Johansen et al., Int. J. Tiss. Reac. 1986, 8, 185; Shori et al., Biochem. Pharmacol., 1992, 43, 1209; Stürzebecher et al., Biol. Chem. Hoppe-Seyler, 1992, 373, 1025). Human KLK1 (Callbiochem) was incubated at 37° C. with the fluorogenic substrate H-DVal-Leu-Arg-AFC and various concentrations of the test compound. Residual enzyme activity (initial rate of reaction) was determined by measuring the change in optical absorbance at 410 nm and the IC50 value for the test compound was determined.

Chain of Human plasma kallikrein (P03952 391-638): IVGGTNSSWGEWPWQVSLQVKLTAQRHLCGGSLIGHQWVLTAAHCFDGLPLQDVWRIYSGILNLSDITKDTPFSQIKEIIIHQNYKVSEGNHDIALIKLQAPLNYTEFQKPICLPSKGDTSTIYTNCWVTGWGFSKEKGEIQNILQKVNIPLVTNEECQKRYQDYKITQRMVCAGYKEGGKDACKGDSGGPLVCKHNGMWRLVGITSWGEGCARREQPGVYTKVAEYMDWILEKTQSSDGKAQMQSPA
Chain of Human plasma kallikrein (P03952 20-390 partner): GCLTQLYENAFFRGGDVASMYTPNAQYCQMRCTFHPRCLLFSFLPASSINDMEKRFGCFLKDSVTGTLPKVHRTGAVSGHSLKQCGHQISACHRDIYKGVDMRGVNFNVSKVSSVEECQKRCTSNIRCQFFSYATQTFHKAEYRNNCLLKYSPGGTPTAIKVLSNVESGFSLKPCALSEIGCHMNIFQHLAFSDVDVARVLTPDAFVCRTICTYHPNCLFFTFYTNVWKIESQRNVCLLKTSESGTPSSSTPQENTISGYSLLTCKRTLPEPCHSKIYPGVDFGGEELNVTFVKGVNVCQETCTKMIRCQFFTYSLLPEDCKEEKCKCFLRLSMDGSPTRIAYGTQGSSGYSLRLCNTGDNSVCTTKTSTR
Chain of Human KLK1 (P06870 25-262): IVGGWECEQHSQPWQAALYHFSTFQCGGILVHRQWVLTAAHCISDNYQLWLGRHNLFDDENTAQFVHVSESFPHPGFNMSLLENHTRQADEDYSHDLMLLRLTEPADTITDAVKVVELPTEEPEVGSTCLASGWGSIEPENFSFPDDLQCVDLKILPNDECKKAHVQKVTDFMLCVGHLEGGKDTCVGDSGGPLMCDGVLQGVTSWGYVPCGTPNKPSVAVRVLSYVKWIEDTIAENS

As a reminder, the IC50 is the point on the concentration scale where inhibition reaches its midpoint. Turning to `Cc1cnn(Cc2ccc(Cc3cncc(C(=O)NCc4cnc5[nH]ccc5c4)c3)cc2)c1` [Example 2, 5-({4-[(4-Methylpyrazol-1-yl)methyl]phenyl}methyl)-N-{7H-pyrrolo[2,3-b]pyridin-5-ylmethyl}pyridine-3-carboxamide], at Human plasma kallikrein, the IC50 amounted to 216 nM.

Regarding `O=C(NCc1cnc2[nH]ccc2c1)c1ccc(=O)n(Cc2ccc(Cn3ccccc3=O)cc2)c1` [Example 6, 6-Oxo-1-({4-[(2-oxopyridin-1-yl)methyl]phenyl}methyl)-N-{7H-pyrrolo[2,3-b]pyridin-5-ylmethyl}pyridine-3-carboxamide], the values for the IC50 on Human plasma kallikrein and on Human KLK1 were 580 nM and 27800 nM, respectively. As to `Cc1cnn(Cc2ccc(Cc3ccnc(C(=O)NCc4cnc5[nH]ccc5c4)c3)cc2)c1` [Example 4, 4-({4-[(4-Methylpyrazol-1-yl)methyl]phenyl}methyl)-N-{7H-pyrrolo[2,3-b]pyridin-5-ylmethyl}pyridine-2-carboxamide], the 50% inhibitory concentration (IC50) at Human plasma kallikrein amounted to 6610 nM. `Cc1cnn(Cc2ccc(Cc3cncc(C(=O)NCc4ccc5c(N)nccc5c4)c3)cc2)c1` [Example 1]: the 50% inhibitory concentration (IC50) at Human plasma kallikrein stood at 3.86 nM.
